The results in this text go back to US20190192524A1, “Modulators of Caspase-6” (The University of British Columbia, priority 2014, published 2019).

For data set [1], the target named is T1, recombinant caspase-6 (Homo sapiens, UniProt P55212).
T1 construct: purchased BioMol
T1 sequence (P55212 24-293): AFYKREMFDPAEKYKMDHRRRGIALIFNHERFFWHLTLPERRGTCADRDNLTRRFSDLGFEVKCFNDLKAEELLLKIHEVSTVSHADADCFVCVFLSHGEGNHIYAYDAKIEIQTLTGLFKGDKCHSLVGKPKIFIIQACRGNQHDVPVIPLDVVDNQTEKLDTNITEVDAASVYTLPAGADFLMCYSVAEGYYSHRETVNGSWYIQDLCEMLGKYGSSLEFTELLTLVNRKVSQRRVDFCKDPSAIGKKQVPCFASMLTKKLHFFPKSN
In words: Simultaneous caspase-6 cleavage and 586 fragment detection by FRET. The class given is biochemical. The following applies: cell-free; Htt substrate from COS-7 cell lysates. Here is the method: Different concentrations of the PG3 compounds were incubated with the Htt protein and the caspase-6 enzyme. The Htt substrate from COS-7 cell lysates is cleaved by caspase 6 and fragments are detected by FRET between the N-terminal BKP1 antibody and the neo-epitope antibody against amino acid 586.
COS-7 cells were grown in DMEM supplemented with 10% fetal bovine serum, 1%/penicillin/streptomycin and 0.5% glutamine. Transfections were performed using the Fugene reagent (Roche) according to manufacturer's instructions. The transfected DNA encodes amino acids 1-1212 of the human Htt protein with 15 glutamines and a C-terminal HA-tag, under control of a CMV promoter (Warby, 2008, supra; Wellington et al., 2000. J Biol Chem 275:19831-19838). The construct that was transfected is 4c Htt, which contains D→A mutations at amino acids 513, 530, 552 and […] (SEQ ID NO: 1). 24 h after transfection, cells were harvested by trypsinization, pellets washed in PBS and lysed by suspension in lysis buffer (50 mM Tris pH 8, 150 mM NaCl, 1% Igepal, supplemented with 1× complete protease inhibitor (Roche) and 4 mM Pefabloc). Lysates were incubated on ice for 10 min, vortexed and sonicated for 4 sec before centrifugation at 21,000×g for 10 min at 4° C. Supernatants were saved, protein concentration determined with the Biorad DC assay and stored at −80° C. until use.
Dilution series of cell lysates and caspase-6 (2.2× final concentration) were prepared in FRET cleavage buffer (10 mM HEPES pH 7.4, 100 mM NaCl, 0.05% gelatin, 0.1% CHAPS, 2 mM DTT) since this buffer was previously found to best stabilize caspase-6 in dilute form at room temperature. For negative controls, 22 μM zVAD-fmk was added to the caspase-6 dilutions.
Tb-labelled BKP1 antibody and D2-labelled 586 antibody (Cisbio) were diluted to 1 ng/μl (Tb) and 10 ng/μl (D2) in FRET cleavage buffer and pre-mixed at a 1:1 ratio.
In each well of a white 384 well plate (Nunc), 10 μl cell lysate were mixed with 10 μl caspase and 2 μl antibody mix, the plate was centrifuged briefly and incubated in the Victor 3 multilabel plate reader (Perkin Elmer) at 37° C. FRET was measured every 30 min for up to 2 h with the following settings: Excitation: 340 nm, Emission 1: 615 nm, Emission 2: 665 nm, 50 μs delay, 200 μs window time, 2000 μs cycle time. To obtain the final FRET signal, the ratio between Emission 2/Emission 1 (D2/Tb signal) was calculated. After 2 h at 37° C., the assay plate was sealed and after further incubation at 4° C. for 20 h, the FRET signal was read again.

In data set [2] the target is T2, interaction between 1212AA Htt and caspase-6 (Homo sapiens, UniProt P55212).
T2 construct: DDK-tag (C); expressed in transfected cells; host or cells: COS-7
T2 sequence (P55212 with tags, fused parts or gaps): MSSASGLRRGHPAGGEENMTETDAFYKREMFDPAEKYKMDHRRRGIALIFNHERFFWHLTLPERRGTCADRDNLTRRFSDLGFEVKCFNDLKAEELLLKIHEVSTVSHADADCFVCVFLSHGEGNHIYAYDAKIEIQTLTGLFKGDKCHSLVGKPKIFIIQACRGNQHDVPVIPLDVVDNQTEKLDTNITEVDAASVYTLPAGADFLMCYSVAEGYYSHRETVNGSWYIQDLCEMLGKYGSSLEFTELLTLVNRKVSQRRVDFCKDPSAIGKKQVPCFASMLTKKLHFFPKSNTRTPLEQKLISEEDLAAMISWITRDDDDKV
Nature of the data set: Co-immunoprecipitation of Htt with caspase-6 antibody from COS-7 lysates. Format: cell-based. The following applies: 10 uM compound, vs DMSO. As to the method:
COS-7 cells were co-transfected with the 1212 amino acid HTT fragment (SEQ ID NO: 3) and the full length human caspase-6 enzyme (SEQ ID NO:4). The co-transfected cells were exposed to either 10 uM of the PG3d compound, 3 uM of the Q-VD-Oph pan-caspase inhibitor or were treated with DMSO as a control. An aliquot of the cell lysates were subjected to Western blotting to detect HTT fragments with the Htt antibody 2166 (Millipore) and the presence of caspase-6 was detected using the HD91 antibody (Ehrnhoefer et al, HMG, 2014. 23(3):717-29). The remaining cell lysates (500 ug protein) were immunoprecipitated with 5 ug of Caspase-6 antibody for 16 hrs at 4 C. The immunoprecipitated proteins were then applied to acrylamide gels and immunoblotted to detect either the HTT fragments or the presence of the active caspase 6 enzyme using the antibodies described above.
As expected, the DMSO control lysates reveal a variety of Htt fragments within the immunocomplexes, including 513AA fragment generated by caspase-3 cleavage, the full-length 1212AA Htt and the 586AA fragment generated by caspase-6 cleavage. When the cells are treated with the pan-caspase inhibitor Q-VD-OPh, the amount of Htt cleavage fragments interacting with caspase-6 is reduced and it is evident that caspase-6 is primarily interacting with the 1212 AA Htt.

Data set [3] deals with primary cortical neurons. In words: Neuronal viability during excitotoxic (NMDA) stress, intracellular ATP. The class given is cell-based, FVB/N mice. The following applies: 10 uM compound; NMDA 25 uM or 50 uM, 20 h. Here is the method:
Cortical neuronal cultures from FVB mice were prepared as described (Metzler et al, J Neurosci (2007) 27(9):2298). […] The measurement of intracellular ATP was used as an assessment of neuronal viability as described previously (Uribe et al, HMG 2012. 21(9):1954-67) using the Cell-titer glo kit from Promega according to manufacturer's instructions.
It has been previously been shown in HD animal models that neuronal cells expressing mHTT have an increased vulnerability to excitotoxic stress (Graham et al. 2005. Neurobiol. Dis. 21:444-455) and that this may be mediated by caspase 6 (Graham et al. 2006. Cell 6(13):1179-1191 and Uribe et al HMG 2012; 21(9):1954-67). The link between NMDA-induced toxicity and other neurodegenerative diseases has been reviewed by Lipton et al., Nat Rev Drug Discovery 2006. 5:160-170. Therefore, the effect of the presence of the PG-3d compound on the ability of neuronal cells to survive during excitotoxic stress via its ability to inhibit the caspase-6 enzyme was investigated.

The IC50 is the midpoint of a concentration-inhibition curve. A word on the melting point: it is the temperature, or range, at which the solid turns liquid.

Consider `O=c1oc(C#Cc2ccccc2)nc(O)c1Cc1ccccc1` [PG-3d, 5-Benzyl-4-hydroxy-2-(phenylethynyl)-6H-1,3-oxazin-6-one], for which the melting point fell in the range of 179 to 181 °C. Further, in data set [1], the concentration for half-maximal inhibition (IC50) was 5.6 µM. In data set [2], the “interaction between 1212AA Htt and caspase-6 (co-immunoprecipitated Htt)” value is listed as “significantly reduces”. Also, in data set [3], the “cell viability (intracellular ATP)” value was “significant improvement”.
